# Measurements: article PMC3534098 (PLoS ONE, 2012)
# Tested on: M. bovis BCG resistant mutants
# Type: cell-based, Mycobacterium bovis BCG
row,Structure (SMILES),viability of M. bovis BCG mutants raised against other IP family members
1,"Cc1ccc2nc(C)c(C(=O)NCc3ccc(C(F)(F)F)cc3)n2c1 [IP 3, 2,6-Dimethyl-N-(4-(trifluoromethyl)benzyl)imidazo[1,2-a]pyridine-3-carboxamide]",viable
2,Cc1ccc2nc(C)c(C(=O)NCc3cccs3)n2c1 [IP 1],viable
3,"Cc1ccc2nc(C)c(C(=O)NCc3ccc(Cl)nc3)n2c1 [IP 4, N-((6-Chloropyridin-3-yl)methyl)-2,6-dimethylimidazo[1,2-a]pyridine-3-carboxamide]",viable
